Results taken from PMC11345841, “Exploring 2-Sulfonylpyrimidine Warheads as Acrylamide Surrogates for Targeted Covalent Inhibition: A BTK Story” (Journal of Medicinal Chemistry, 2024).
Where two headings read alike, the source gives them in different places.

Assays:
[1] = target: T1, ABL1(H396P)-phosphorylated (Homo sapiens, UniProt P00519, H396P); test: KINOMEscan ScanTK; format: binding
T1 construct: purchased Eurofins DiscoverX KINOMEscan (scanTK)

[2] = target: T2, ABL1(T315I)-nonphosphorylated (Homo sapiens, UniProt P00519, T315I); test: KINOMEscan ScanTK; format: binding
T2 construct: purchased Eurofins DiscoverX KINOMEscan (scanTK)

BTK = target: T3, BTK (Homo sapiens, UniProt Q06187); test: KINOMEscan ScanTK; format: binding; conditions: for remaining binding at 1 µM: BTK; for inhibition at 1 µM: ScanTK
T3 construct: purchased Eurofins DiscoverX KINOMEscan (scanTK)
T3 sequence (Q06187 whole entry): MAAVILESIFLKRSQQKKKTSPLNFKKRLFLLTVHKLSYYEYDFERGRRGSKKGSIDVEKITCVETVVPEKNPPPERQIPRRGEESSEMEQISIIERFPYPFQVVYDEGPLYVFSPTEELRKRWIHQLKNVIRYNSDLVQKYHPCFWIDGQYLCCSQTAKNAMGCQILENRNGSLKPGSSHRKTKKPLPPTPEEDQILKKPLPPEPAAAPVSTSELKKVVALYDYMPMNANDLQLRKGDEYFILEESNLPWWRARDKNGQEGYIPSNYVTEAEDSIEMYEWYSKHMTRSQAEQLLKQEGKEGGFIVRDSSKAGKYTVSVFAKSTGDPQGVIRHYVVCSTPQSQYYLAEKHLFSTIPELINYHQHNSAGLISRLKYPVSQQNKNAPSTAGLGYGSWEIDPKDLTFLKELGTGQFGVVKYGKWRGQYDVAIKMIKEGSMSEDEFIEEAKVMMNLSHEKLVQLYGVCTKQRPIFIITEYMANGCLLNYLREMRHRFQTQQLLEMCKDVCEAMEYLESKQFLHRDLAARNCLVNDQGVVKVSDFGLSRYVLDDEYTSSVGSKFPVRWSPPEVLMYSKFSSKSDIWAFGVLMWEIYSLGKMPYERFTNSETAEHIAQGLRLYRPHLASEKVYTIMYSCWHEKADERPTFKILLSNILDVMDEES

EPHA1 = target: T4, EPHA1 (Homo sapiens, UniProt P21709); test: KINOMEscan ScanTK; format: binding
T4 construct: purchased Eurofins DiscoverX KINOMEscan (scanTK)
T4 sequence (P21709 26-976): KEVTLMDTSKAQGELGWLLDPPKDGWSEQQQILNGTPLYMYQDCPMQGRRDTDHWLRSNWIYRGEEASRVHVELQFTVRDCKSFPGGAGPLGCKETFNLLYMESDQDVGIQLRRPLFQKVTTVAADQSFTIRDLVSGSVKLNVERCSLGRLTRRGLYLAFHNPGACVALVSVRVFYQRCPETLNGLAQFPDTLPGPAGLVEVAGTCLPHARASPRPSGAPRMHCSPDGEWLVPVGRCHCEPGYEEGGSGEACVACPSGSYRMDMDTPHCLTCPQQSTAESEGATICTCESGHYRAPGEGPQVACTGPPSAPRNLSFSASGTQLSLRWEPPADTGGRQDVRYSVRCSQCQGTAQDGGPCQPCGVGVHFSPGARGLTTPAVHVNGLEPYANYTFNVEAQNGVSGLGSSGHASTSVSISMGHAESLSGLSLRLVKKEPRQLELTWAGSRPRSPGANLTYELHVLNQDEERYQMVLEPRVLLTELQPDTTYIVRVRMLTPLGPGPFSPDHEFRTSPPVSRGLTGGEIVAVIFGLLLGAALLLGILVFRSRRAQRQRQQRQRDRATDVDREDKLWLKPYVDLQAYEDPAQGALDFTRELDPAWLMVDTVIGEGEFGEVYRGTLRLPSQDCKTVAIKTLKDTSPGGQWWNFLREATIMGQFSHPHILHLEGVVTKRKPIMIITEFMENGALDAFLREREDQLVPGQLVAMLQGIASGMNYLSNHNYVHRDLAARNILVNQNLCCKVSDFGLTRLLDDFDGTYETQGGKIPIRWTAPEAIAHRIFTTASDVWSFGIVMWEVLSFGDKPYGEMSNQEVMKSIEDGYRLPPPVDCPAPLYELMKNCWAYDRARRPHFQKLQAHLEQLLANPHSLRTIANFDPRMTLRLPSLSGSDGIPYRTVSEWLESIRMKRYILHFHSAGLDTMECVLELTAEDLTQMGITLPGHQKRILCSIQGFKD

EPHA7 = target: T5, EPHA7 (Homo sapiens, UniProt Q15375); test: KINOMEscan ScanTK; format: binding
T5 construct: purchased Eurofins DiscoverX KINOMEscan (scanTK)
T5 sequence (Q15375 28-998): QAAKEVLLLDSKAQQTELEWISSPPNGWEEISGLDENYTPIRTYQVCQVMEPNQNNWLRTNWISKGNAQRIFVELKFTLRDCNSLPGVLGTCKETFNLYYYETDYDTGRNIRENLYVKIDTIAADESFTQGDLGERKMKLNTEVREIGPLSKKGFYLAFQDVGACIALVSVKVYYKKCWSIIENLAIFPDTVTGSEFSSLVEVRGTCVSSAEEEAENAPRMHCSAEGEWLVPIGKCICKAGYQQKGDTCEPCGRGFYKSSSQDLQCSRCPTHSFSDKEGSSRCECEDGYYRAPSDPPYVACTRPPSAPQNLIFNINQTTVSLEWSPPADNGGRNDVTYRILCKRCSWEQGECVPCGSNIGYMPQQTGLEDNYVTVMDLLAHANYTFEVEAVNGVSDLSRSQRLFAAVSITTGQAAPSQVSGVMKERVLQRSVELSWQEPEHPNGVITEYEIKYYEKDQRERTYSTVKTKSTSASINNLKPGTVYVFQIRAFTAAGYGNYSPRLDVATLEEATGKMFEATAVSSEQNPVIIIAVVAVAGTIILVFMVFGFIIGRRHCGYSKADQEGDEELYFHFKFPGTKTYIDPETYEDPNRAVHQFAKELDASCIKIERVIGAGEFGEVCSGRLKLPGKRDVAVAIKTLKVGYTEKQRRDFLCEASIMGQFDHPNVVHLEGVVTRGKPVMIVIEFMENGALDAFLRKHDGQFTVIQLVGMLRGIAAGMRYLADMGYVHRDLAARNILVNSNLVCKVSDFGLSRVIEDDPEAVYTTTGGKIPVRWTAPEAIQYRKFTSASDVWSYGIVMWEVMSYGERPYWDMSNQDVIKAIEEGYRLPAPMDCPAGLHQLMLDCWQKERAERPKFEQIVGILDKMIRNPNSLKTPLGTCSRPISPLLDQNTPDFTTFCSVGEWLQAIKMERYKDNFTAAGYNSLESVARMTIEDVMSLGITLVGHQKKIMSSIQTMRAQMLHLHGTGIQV

FGR = target: T6, FGR (Homo sapiens, UniProt P09769); test: KINOMEscan ScanTK; format: binding
T6 construct: purchased Eurofins DiscoverX KINOMEscan (scanTK)
T6 sequence (P09769 whole entry): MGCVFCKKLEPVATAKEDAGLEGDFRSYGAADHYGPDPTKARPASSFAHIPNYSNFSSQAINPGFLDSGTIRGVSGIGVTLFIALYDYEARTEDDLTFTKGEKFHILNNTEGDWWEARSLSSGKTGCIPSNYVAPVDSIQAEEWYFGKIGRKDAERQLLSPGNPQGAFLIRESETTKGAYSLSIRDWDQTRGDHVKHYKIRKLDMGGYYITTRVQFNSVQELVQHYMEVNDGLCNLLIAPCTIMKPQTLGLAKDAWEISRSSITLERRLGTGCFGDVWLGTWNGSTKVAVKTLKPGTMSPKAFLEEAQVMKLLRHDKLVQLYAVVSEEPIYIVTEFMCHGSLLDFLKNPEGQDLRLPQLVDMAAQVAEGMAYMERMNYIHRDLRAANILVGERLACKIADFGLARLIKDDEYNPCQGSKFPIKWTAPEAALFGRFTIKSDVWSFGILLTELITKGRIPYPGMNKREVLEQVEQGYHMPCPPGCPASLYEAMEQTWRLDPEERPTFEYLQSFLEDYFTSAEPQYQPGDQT

FLT3(ITD,D835V) = test: KINOMEscan ScanTK; format: binding; conditions: for % difference (compound - Ib %Control) / %Control: @1000nM
KIT = target: T7, KIT (Homo sapiens, UniProt P10721); test: KINOMEscan ScanTK; format: binding
T7 construct: purchased Eurofins DiscoverX KINOMEscan (scanTK)
T7 sequence (P10721 26-976): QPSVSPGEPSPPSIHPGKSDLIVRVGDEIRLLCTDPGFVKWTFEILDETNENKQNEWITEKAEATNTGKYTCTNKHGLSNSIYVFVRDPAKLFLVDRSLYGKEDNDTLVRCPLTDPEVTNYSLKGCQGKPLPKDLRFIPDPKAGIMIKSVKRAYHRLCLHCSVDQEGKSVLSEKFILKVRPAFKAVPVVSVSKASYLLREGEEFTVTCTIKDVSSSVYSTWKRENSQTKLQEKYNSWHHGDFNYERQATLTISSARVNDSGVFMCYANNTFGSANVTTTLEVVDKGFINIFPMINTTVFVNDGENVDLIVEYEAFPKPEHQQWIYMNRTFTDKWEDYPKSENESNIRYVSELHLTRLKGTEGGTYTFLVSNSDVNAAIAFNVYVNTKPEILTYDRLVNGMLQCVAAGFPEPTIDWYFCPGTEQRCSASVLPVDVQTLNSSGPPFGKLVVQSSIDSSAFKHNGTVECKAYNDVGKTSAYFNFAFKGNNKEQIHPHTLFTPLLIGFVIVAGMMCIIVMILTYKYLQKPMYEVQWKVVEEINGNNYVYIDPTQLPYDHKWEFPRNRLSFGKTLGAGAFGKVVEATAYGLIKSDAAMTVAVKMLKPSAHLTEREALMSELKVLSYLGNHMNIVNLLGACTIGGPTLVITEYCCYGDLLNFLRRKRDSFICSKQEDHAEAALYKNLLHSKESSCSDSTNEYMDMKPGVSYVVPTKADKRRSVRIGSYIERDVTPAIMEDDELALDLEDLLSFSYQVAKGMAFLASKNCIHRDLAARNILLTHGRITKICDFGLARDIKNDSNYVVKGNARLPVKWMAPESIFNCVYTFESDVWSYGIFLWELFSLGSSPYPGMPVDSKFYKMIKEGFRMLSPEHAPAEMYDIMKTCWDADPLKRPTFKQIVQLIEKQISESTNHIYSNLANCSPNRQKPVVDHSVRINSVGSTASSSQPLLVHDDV

LTK = target: T8, LTK (Homo sapiens, UniProt P29376); test: KINOMEscan ScanTK; format: binding
T8 construct: purchased Eurofins DiscoverX KINOMEscan (scanTK)
T8 sequence (P29376 17-864): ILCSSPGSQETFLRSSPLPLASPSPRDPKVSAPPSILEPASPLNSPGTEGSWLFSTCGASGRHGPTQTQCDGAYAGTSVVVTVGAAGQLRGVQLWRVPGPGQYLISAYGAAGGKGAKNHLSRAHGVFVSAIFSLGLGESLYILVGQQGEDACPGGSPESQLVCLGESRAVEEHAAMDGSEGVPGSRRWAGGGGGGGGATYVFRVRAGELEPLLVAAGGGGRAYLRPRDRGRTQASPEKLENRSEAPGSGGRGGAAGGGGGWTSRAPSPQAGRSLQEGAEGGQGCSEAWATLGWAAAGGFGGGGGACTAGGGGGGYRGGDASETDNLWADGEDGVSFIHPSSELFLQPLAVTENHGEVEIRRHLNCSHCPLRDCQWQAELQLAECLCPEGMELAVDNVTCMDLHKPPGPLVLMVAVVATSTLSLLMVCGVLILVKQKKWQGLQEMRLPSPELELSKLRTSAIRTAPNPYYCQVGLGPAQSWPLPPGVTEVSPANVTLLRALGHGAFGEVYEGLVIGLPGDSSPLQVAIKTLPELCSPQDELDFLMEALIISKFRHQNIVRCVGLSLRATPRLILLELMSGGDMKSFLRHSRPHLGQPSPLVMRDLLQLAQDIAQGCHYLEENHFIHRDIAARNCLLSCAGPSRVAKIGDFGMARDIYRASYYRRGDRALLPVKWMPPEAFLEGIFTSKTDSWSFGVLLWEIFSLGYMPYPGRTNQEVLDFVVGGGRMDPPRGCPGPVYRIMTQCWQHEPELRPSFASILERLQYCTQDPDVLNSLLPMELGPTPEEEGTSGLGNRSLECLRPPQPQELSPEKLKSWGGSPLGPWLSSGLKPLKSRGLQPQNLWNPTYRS

RET(V804L) = target: T9, RET(V804L) (Homo sapiens, UniProt P07949, V804L); test: KINOMEscan ScanTK; format: binding
T9 construct: purchased Eurofins DiscoverX KINOMEscan (scanTK)
T9 sequence (P07949 29-1114 V804L): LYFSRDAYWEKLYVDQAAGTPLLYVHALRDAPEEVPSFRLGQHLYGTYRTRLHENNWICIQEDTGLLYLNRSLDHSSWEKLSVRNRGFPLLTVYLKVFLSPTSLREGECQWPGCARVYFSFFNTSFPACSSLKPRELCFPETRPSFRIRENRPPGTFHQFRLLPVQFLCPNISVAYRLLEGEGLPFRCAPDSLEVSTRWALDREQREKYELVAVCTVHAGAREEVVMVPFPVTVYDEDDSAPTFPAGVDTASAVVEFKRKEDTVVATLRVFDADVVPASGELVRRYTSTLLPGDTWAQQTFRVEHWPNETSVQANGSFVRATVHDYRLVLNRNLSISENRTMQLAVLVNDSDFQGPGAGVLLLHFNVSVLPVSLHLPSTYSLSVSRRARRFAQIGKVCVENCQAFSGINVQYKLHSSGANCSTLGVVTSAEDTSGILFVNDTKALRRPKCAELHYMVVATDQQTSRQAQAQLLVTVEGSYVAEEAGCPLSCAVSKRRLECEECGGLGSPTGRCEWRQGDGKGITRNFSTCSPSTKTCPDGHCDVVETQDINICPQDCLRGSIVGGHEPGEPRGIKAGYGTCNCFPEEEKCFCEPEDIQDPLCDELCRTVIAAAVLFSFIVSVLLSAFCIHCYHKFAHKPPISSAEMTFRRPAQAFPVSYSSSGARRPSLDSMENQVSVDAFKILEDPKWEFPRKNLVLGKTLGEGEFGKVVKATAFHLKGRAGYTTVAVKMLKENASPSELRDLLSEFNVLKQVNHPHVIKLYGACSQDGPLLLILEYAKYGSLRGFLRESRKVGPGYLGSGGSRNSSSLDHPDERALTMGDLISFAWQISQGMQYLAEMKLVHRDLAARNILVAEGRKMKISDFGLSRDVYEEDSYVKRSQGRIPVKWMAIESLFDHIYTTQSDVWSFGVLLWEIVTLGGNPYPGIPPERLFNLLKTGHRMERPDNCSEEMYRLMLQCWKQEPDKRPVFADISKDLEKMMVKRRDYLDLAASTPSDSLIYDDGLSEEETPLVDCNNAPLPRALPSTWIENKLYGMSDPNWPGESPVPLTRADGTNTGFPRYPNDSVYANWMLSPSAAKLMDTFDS

TNK1 = target: T10, TNK1 (Homo sapiens, UniProt Q13470); test: KINOMEscan ScanTK; format: binding
T10 construct: purchased Eurofins DiscoverX KINOMEscan (scanTK)
T10 sequence (Q13470 1-666): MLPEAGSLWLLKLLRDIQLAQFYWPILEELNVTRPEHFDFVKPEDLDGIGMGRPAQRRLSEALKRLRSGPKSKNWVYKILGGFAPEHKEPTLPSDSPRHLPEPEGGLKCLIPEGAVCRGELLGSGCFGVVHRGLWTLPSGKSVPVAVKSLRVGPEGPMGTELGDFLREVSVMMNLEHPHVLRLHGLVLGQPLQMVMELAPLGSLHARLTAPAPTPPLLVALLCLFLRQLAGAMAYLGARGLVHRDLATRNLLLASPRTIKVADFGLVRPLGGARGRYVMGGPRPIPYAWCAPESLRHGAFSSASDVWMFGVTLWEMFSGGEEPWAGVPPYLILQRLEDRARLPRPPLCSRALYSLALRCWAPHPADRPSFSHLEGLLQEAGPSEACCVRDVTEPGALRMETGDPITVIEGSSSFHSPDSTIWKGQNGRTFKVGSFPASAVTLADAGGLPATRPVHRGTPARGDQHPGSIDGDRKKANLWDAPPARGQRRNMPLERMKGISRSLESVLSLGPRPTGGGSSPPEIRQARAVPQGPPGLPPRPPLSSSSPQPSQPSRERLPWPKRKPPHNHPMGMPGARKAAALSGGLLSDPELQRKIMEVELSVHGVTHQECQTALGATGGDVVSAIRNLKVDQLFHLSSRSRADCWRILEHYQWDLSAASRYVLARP

wild-type BTK = wild-type BTK (Homo sapiens, UniProt Q06187); test: NanoBRET target engagement assay in HEK293 cells
Sequence of wild-type BTK (Q06187 whole entry): as the sequence (Q06187 whole entry) above

[3] = @1000nM, read-out: % difference (compound - Ib %Control)

| %Control difference versus compound Ib at 1 µM ([1]; @1000nM) | remaining binding at 1 µM ([1]; @1000nM, read-out: %Control) | remaining binding at 1 µM ([1]; read-out: %Control @1000nM) | difference in % of control versus compound Ib at 1 µM ([2]; @1000nM) | remaining binding at 1 µM ([2]; @1000nM, read-out: %Control) | remaining binding at 1 µM ([2]; read-out: %Control @1000nM) | remaining binding at 1 µM (BTK; [3]) | remaining binding at 1 µM (BTK; @1000nM, read-out: %Control) | remaining binding at 1 µM (BTK; read-out: %Control @1000nM) | inhibition at 1 µM (BTK) | difference in %Control versus compound Ib at 1 µM (EPHA1; @1000nM) | remaining binding at 1 µM (EPHA1; @1000nM, read-out: %Control) | remaining binding at 1 µM (EPHA1; read-out: %Control @1000nM) | difference in %Control versus compound Ib at 1 µM (EPHA7; @1000nM) | remaining binding at 1 µM (EPHA7; @1000nM, read-out: %Control) | remaining binding at 1 µM (EPHA7; read-out: %Control @1000nM) | difference in %Control versus compound Ib at 1 µM (FGR; @1000nM) | remaining binding at 1 µM (FGR; @1000nM, read-out: %Control) | remaining binding at 1 µM (FGR; read-out: %Control @1000nM) | Compound | %Control @1000nM (FLT3(ITD,D835V)) | further results |
| --- | --- | --- | --- | --- | --- | --- | --- | --- | --- | --- | --- | --- | --- | --- | --- | --- | --- | --- | --- | --- | --- |
| 12% | 92% | 92% | -17% | 76% | 76% | 0.75% | 0.75% | 0.75% | > 99% | -16% | 56% | 56% | -2% | 93% | 93% | 20.7% | 26% | 26% | COC(=O)c1cnc(S(C)(=O)=O)nc1N1CCCC(n2nc(-c3ccc(Oc4ccccc4)cc3)c3c(N)ncnc32)C1 (centres unmarked) [Compound 8b, Methyl 4-(3-(4-Amino-3-(4-phenoxyphenyl)-1H-pyrazolo[3,4-d]pyrimidin-1-yl)piperidin-1-yl)-2-(methylsulfonyl)pyrimidine-5-carboxylate] | 93% | % difference (compound - Ib %Control) (FLT3(ITD,D835V)): 16%; %Control (FLT3(ITD,D835V)): 93%; difference in %Control versus compound Ib at 1 µM (KIT; @1000nM): 30%; remaining binding at 1 µM (KIT; @1000nM, read-out: %Control): 71%; remaining binding at 1 µM (KIT; read-out: %Control @1000nM): 71%; remaining binding at 1 µM (LTK; @1000nM, read-out: %Control): 94%; remaining binding at 1 µM (LTK; read-out: %Control @1000nM): 94%; remaining binding at 1 µM (RET(V804L); @1000nM, read-out: %Control): 90%; remaining binding at 1 µM (RET(V804L); read-out: %Control @1000nM): 90%; remaining binding at 1 µM (TNK1; @1000nM, read-out: %Control): 88%; remaining binding at 1 µM (TNK1; read-out: %Control @1000nM): 88%; IC50 (wild-type BTK): 38 ± 6 nM |
| -3% | 77% | 77% | -9% | 84% | 84% | 18% | 18% | 18% | 82% | 20% | 92% | 92% | 2% | 97% | 97% | 13.7% | 19% | 19% | CCOC(=O)c1cnc(S(C)(=O)=O)nc1N1CCC[C@@H](n2nc(-c3ccc(Oc4ccccc4)cc3)c3c(N)ncnc32)C1 [Compound 8c, Ethyl (R)-4-(3-(4-Amino-3-(4-phenoxyphenyl)-1H-pyrazolo[3,4-d]pyrimidin-1-yl)piperidin-1-yl)-2-(methylsulfonyl)pyrimidine-5-carboxylate] | 69% | % difference (compound - Ib %Control) (FLT3(ITD,D835V)): -8%; %Control (FLT3(ITD,D835V)): 69%; difference in %Control versus compound Ib at 1 µM (KIT; @1000nM): 52%; remaining binding at 1 µM (KIT; @1000nM, read-out: %Control): 93%; remaining binding at 1 µM (KIT; read-out: %Control @1000nM): 93%; remaining binding at 1 µM (LTK; @1000nM, read-out: %Control): 100%; remaining binding at 1 µM (LTK; read-out: %Control @1000nM): 100%; remaining binding at 1 µM (RET(V804L); @1000nM, read-out: %Control): 100%; remaining binding at 1 µM (RET(V804L); read-out: %Control @1000nM): 100%; remaining binding at 1 µM (TNK1; @1000nM, read-out: %Control): 81%; remaining binding at 1 µM (TNK1; read-out: %Control @1000nM): 81% |

| Compound | %Control difference versus compound Ib at 1 µM ([1]; @1000nM) | remaining binding at 1 µM ([1]; @1000nM, read-out: %Control) | remaining binding at 1 µM ([1]; read-out: %Control @1000nM) | difference in % of control versus compound Ib at 1 µM ([2]; @1000nM) | remaining binding at 1 µM ([2]; @1000nM, read-out: %Control) | remaining binding at 1 µM ([2]; read-out: %Control @1000nM) | remaining binding at 1 µM (BTK; [3]) | remaining binding at 1 µM (BTK; @1000nM, read-out: %Control) | remaining binding at 1 µM (BTK; read-out: %Control @1000nM) | inhibition at 1 µM (BTK) | difference in %Control versus compound Ib at 1 µM (EPHA1; @1000nM) | remaining binding at 1 µM (EPHA1; @1000nM, read-out: %Control) | remaining binding at 1 µM (EPHA1; read-out: %Control @1000nM) | difference in %Control versus compound Ib at 1 µM (EPHA7; @1000nM) | remaining binding at 1 µM (EPHA7; @1000nM, read-out: %Control) | remaining binding at 1 µM (EPHA7; read-out: %Control @1000nM) | difference in %Control versus compound Ib at 1 µM (FGR; @1000nM) | remaining binding at 1 µM (FGR; @1000nM, read-out: %Control) | remaining binding at 1 µM (FGR; read-out: %Control @1000nM) | %Control @1000nM (FLT3(ITD,D835V)) | further results |
| --- | --- | --- | --- | --- | --- | --- | --- | --- | --- | --- | --- | --- | --- | --- | --- | --- | --- | --- | --- | --- | --- |
| CNC(=O)c1cnc(S(C)(=O)=O)nc1N1CCCC(n2nc(-c3ccc(Oc4ccccc4)cc3)c3c(N)ncnc32)C1 (centres unmarked) [Compound 8d, 4-(3-(4-Amino-3-(4-phenoxyphenyl)-1H-pyrazolo[3,4-d]pyrimidin-1-yl)piperidin-1-yl)-N-methyl-2-(methylsulfonyl)pyrimidine-5-carboxamide] | -1% | 79% | 79% | -16% | 77% | 77% | 0% | 0% | 0% | > 99% | -6% | 66% | 66% | 4% | 99% | 99% | 10.7% | 16% | 16% | 70% | % difference (compound - Ib %Control) (FLT3(ITD,D835V)): -7%; %Control (FLT3(ITD,D835V)): 70%; difference in %Control versus compound Ib at 1 µM (KIT; @1000nM): 58%; remaining binding at 1 µM (KIT; @1000nM, read-out: %Control): 99%; remaining binding at 1 µM (KIT; read-out: %Control @1000nM): 99%; remaining binding at 1 µM (LTK; @1000nM, read-out: %Control): 100%; remaining binding at 1 µM (LTK; read-out: %Control @1000nM): 100%; remaining binding at 1 µM (RET(V804L); @1000nM, read-out: %Control): 93%; remaining binding at 1 µM (RET(V804L); read-out: %Control @1000nM): 93%; remaining binding at 1 µM (TNK1; @1000nM, read-out: %Control): 97%; remaining binding at 1 µM (TNK1; read-out: %Control @1000nM): 97%; NanoBRET IC50 (wild-type BTK; HEK293 cells, 1 h treatment): low to subnanomolar |
